Experimental findings from patent publication US20250154169A1, “COMPOUNDS AND METHODS FOR MODULATING SPLICING” (REMIX THERAPEUTICS INC., priority 2021, published 2025) are described below.

Molecules are shown by their SMILES. Where two headings read alike, the source gives them in different places.

Type in all cases: cell-based, human
For assay [1], the system named is HTT mRNA. Kind of assay: Splicing RT-qPCR assay, HTT canonical (CJ) and alternative (AJ) junction mRNA. To be noted: Homo sapiens, A673 or K562 cells, 24 hours compound treatment; for IC50: 24 h, read-out: HTT CJ (IC50, decrease in canonical junction mRNA); for AC50: read-out: HTT AJ (AC50, increase in alternative junction mRNA). The essentials: (§1)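 A673 or K562 cells were treated 24 h at 37 °C with an 11-point 3-fold compound dilution series (top 10 uM, DMSO ≤0.25%). Lysates went to one-step RT-qPCR measuring canonical (CJ) and alternative-exon (AJ) junction transcripts, normalized to GAPDH, GUSB or PPIA.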
(In general: In qPCR the cycle at which signal appears reflects the starting amount.)

The subject of assay [2] is MYB mRNA. Kind of assay: Splicing RT-qPCR assay, MYB canonical (CJ) and alternative (AJ) junction mRNA. To be noted: Homo sapiens; for AC50: read-out: MYB AJ (AC50, increase in alternative junction mRNA). The essentials: as §1
For assay [3], the system named is Target C mRNA. Kind of assay: Splicing RT-qPCR gene panel, Target C canonical junction (CJ) mRNA. To be noted: Homo sapiens, Tables 4A/4B, read-out: Target C (IC50, decrease in CJ mRNA, gene panel). The procedure, abridged:
(§2)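 Read-out: RT-qPCR of the canonical exon-exon junction transcript, ΔCt vs housekeeping gene, normalized to DMSO, RQ = 2^(−ΔΔCt), converted to percentage response. Cells, A673 or K562, were dosed 24 h at 37 °C across 11 3-fold dilutions from 10 uM.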

The test system of assay [4] is SMN2 mRNA. Kind of assay: Splicing RT-qPCR gene panel, SMN2 canonical junction (CJ) mRNA. To be noted: Homo sapiens, Tables 4A/4B, read-out: SMN2 (IC50, decrease in CJ mRNA, gene panel). The essentials: as §2
The test system of assay [5] is HTT mRNA. Briefly: Splicing RT-qPCR gene panel, HTT canonical junction (CJ) mRNA. To be noted: Homo sapiens, Tables 4A/4B, read-out: HTT (IC50, decrease in CJ mRNA, gene panel). The procedure, abridged:
as §2

Where [6] appears, read: 24 h, A673 or K562 cells, 24 hours compound treatment, RT-qPCR.
[7] abbreviates: 24 h, A673 or K562 cells, 24 hours compound treatment, RT-qPCR, read-out: MYB CJ (IC50, decrease in canonical junction mRNA).
[8] abbreviates: Tables 4A/4B, canonical junction qPCR panel, read-out: MYB (IC50, decrease in CJ mRNA, gene panel).

The IC50 is the concentration that gives 50% inhibition. A word on the AC50: it is the midpoint of the concentration-response curve, whichever way the signal moves.

In the case of `CCn1cc2c(N3CC[C@H](NC4CC4)C3)ccc(C(=O)Nc3cc(F)c4nc(C)cn4c3)c2n1` [Compound 410, (S)-4-(3-(cyclopropylamino)pyrrolidin-1-yl)-2-ethyl-N-(8-fluoro-2-methylimidazo[1,2-a]pyridin-6-yl)-2H-indazole-7-carboxamide], the 50% inhibitory concentration (IC50) in assay [1] is > 10 µM; in assay [2] (setting [7]) it was 0.1 to 1 µM; in assay [2] (setting [8]) it was 0.1 to 1 µM; in assay [3], > 10 µM; in assay [4], < 0.1 µM; in assay [5], > 10 µM. In addition, the results for the half-maximal activity concentration (AC50) in assay [1] and in assay [2] (setting [6]) were > 10 µM and 1 to 10 µM, respectively.
Turning to `Cc1cn2cc(NC(=O)c3ccc(N4CCNCC4)c4cn(CC#N)nc34)cc(F)c2n1` [Compound 413, 2-(cyanomethyl)-N-{8-fluoro-2-methylimidazo[1,2-a]pyridin-6-yl}-4-(piperazin-1-yl) indazole-7-carboxamide], the half-inhibitory concentration (IC50) was 1 to 10 µM in assay [1]; < 0.1 µM in assay [2] (setting [7]); < 0.1 µM in assay [2] (setting [8]); > 10 µM in assay [3]; < 0.1 µM in assay [4]; 1 to 10 µM in assay [5]. Also, the concentration at half-maximal activity (AC50) in assay [1] is 1 to 10 µM; in assay [2] (setting [6]), < 0.1 µM.
For `Cc1cn2cc(NC(=O)c3ccc(N4CCNCC4)c4cn(CC56CC(O)(C5)C6)nc34)cc(F)c2n1` [Compound 414, N-{8-fluoro-2-methylimidazo[1,2-a]pyridin-6-yl}-2-({3-hydroxybicyclo[1.1.1]pentan-1-yl}methyl)-4-(piperazin-1-yl) indazole-7-carboxamide 2,2,2-trifluoroacetate], the IC50 in assay [1] is > 10 µM; in assay [2] (setting [7]), 1 to 10 µM; in assay [2] (setting [8]), 1 to 10 µM; in assay [3], > 10 µM; in assay [4], 1 to 10 µM; in assay [5], > 10 µM. In addition, the values for the half-maximal activity concentration (AC50) in assay [1] and in assay [2] (setting [6]) were > 10 µM and 1 to 10 µM, respectively.
Take `CCn1cc2c(N3CCN4C(=O)OCC4C3)ccc(C(=O)Nc3cc(F)c4nc(C)cn4c3)c2n1` (stereo not drawn) [Compound 415, 2-ethyl-N-{8-fluoro-2-methylimidazo[1,2-a]pyridin-6-yl}-4-{3-oxo-tetrahydro-1H-[1,3]oxazolo[3,4-a]pyrazin-7-yl}indazole-7-carboxamide]: the IC50 in assay [1], in assay [2] (setting [7]), in assay [2] (setting [8]), in assay [3], in assay [4] and in assay [5] was 0.1 to 1 µM in each case. For the same compound, the concentration at half-maximal activity (AC50) in assay [1] and in assay [2] (setting [6]) was 0.1 to 1 µM throughout.
Regarding `C=C(C)n1ncc2c(N3CCNCC3)ccc(C(=O)Nc3cc(F)c4nc(C)cn4c3)c21` [Compound 416, N-(8-fluoro-2-methylimidazo[1,2-a]pyridin-6-yl)-4-(piperazin-1-yl)-1-(prop-1-en-2-yl)-1H-indazole-7-carboxamide], the IC50 in assay [1] was > 10 µM; in assay [2] (setting [7]), > 10 µM; in assay [2] (setting [8]) it was > 10 µM; in assay [3], > 10 µM; in assay [4] it was 1 to 10 µM; in assay [5], > 10 µM. The AC50 in assay [1] and in assay [2] (setting [6]) was > 10 µM in each case.
In the case of `CNC1CCN(c2ccc(C(=O)Nc3cn4cc(C)nc4c(OC)n3)c3nn(C)cc23)C1` (stereo not drawn) [Compound 417], the half-inhibitory concentration (IC50) was 1 to 10 µM in assay [1]; < 0.1 µM in assay [2] (setting [7]); < 0.1 µM in assay [2] (setting [8]); > 10 µM in assay [3]; < 0.1 µM in assay [4]; > 10 µM in assay [5]. For the same compound, the concentration at half-maximal activity (AC50) is > 10 µM in assay [1] and < 0.1 µM in assay [2] (setting [6]).
Consider `CNC1CCN(c2ccc(C(=O)Nc3cn4cc(C)nc4c(OC)n3)c3nn(CCOC)cc23)C1` (stereo not drawn) [Compound 418, N-{8-methoxy-2-methylimidazo[1,2-a]pyrazin-6-yl}-2-(2-methoxyethyl)-4-[3-(methylamino)pyrrolidin-1-yl]indazole-7-carboxamide], for which the IC50 is > 10 µM in assay [1]; 0.1 to 1 µM in assay [2] (setting [7]); 0.1 to 1 µM in assay [2] (setting [8]); > 10 µM in assay [3]; < 0.1 µM in assay [4]; > 10 µM in assay [5]. For the same compound, the AC50 was > 10 µM in assay [1] and 1 to 10 µM in assay [2] (setting [6]).
As to `CNC1CCN(c2ccc(C(=O)Nc3cn4cc(C)nc4c(N(C)C)n3)c3nn(C)cc23)C1` (stereo not drawn) [Compound 419, N-[8-(dimethylamino)-2-methylimidazo[1,2-a]pyrazin-6-yl]-2-methyl-4-[3-(methylamino)pyrrolidin-1-yl]indazole-7-carboxamide], the 50% inhibitory concentration (IC50) in assay [1], in assay [2] (setting [7]), in assay [2] (setting [8]), in assay [3], in assay [4] and in assay [5] was > 10 µM in each case. The AC50 in assay [1] and in assay [2] (setting [6]) was > 10 µM each time.
In the case of `CCOc1nc(NC(=O)c2ccc(N3CCC(NC)C3)c3cn(C)nc23)cn2cc(C)nc12` (stereo not drawn) [Compound 420, N-{8-ethoxy-2-methylimidazo[1,2-a]pyrazin-6-yl}-2-methyl-4-[3-(methylamino)pyrrolidin-1-yl]indazole-7-carboxamide], the IC50 in assay [1] was > 10 µM; in assay [2] (setting [7]), 0.1 to 1 µM; in assay [2] (setting [8]), 0.1 to 1 µM; in assay [3] it was > 10 µM; in assay [4], < 0.1 µM; in assay [5] it was > 10 µM. The AC50 in assay [1] is > 10 µM; in assay [2] (setting [6]), 0.1 to 1 µM.
Turning to `Cc1cc2nc(NC(=O)c3ccc(N4CCNCC4)c4cn(C)nc34)cc(C)n2n1` [Compound 421, N-{2,7-dimethylpyrazolo[1,5-a]pyrimidin-5-yl}-2-methyl-4-(piperazin-1-yl) indazole-7-carboxamide], the concentration for half-maximal inhibition (IC50) in assay [1], in assay [2] (setting [7]), in assay [2] (setting [8]), in assay [3], in assay [4] and in assay [5] was > 10 µM each time. The half-maximal activity concentration (AC50) in assay [1] and in assay [2] (setting [6]) was > 10 µM in each case.
`CCn1cc2c(N3CCC(C)(NC)CC3)ccc(C(=O)Nc3cc(F)c4nc(C)cn4c3)c2n1` [Compound 423, 2-ethyl-N-{8-fluoro-2-methylimidazo[1,2-a]pyridin-6-yl}-4-[4-methyl-4-(methylamino)piperidin-1-yl]indazole-7-carboxamide]: the IC50 is 0.1 to 1 µM in assay [1]; < 0.1 µM in assay [2] (setting [7]); < 0.1 µM in assay [2] (setting [8]); 1 to 10 µM in assay [3]; < 0.1 µM in assay [4]; 0.1 to 1 µM in assay [5]. In addition, the AC50 in assay [1] is 0.1 to 1 µM; in assay [2] (setting [6]), < 0.1 µM.
With `COC1CC(n2cc3c(N4CCNCC4)ccc(C(=O)Nc4cc(F)c5nc(C)cn5c4)c3n2)C1` (stereo not drawn) [Compound 424], the IC50 in assay [1] was > 10 µM; in assay [2] (setting [7]), > 10 µM; in assay [2] (setting [8]) it was > 10 µM; in assay [3], > 10 µM; in assay [4] it was 1 to 10 µM; in assay [5], > 10 µM. The AC50 in assay [1] and in assay [2] (setting [6]) was > 10 µM throughout.
As for `CN[C@@H]1CCN(c2ccc(C(=O)Nc3cn4cc(C)nc4c(N(C)C)n3)c3nn(C)cc23)C1` [Compound 425], the 50% inhibitory concentration (IC50) in assay [1], in assay [2] (setting [7]), in assay [2] (setting [8]), in assay [3], in assay [4] and in assay [5] was > 10 µM each time. For the same compound, the concentration at half-maximal activity (AC50) in assay [1] and in assay [2] (setting [6]) was > 10 µM in each case.
With `CN[C@H]1CCN(c2ccc(C(=O)Nc3cn4cc(C)nc4c(N(C)C)n3)c3nn(C)cc23)C1` [Compound 426], the 50% inhibitory concentration (IC50) in assay [1], in assay [2] (setting [7]), in assay [2] (setting [8]), in assay [3], in assay [4] and in assay [5] was > 10 µM each time. Moreover, the concentration at half-maximal activity (AC50) in assay [1] and in assay [2] (setting [6]) was > 10 µM each time.
Consider `Cc1cn2cc(NC(=O)c3ccc(N4CCNCC4)c4nn(C)nc34)cc(F)c2n1` [Compound 427, N-{8-fluoro-2-methylimidazo[1,2-a]pyridin-6-yl}-2-methyl-7-(piperazin-1-yl)-1,2,3-benzotriazole-4-carboxamide], for which the IC50 in assay [1] was 0.1 to 1 µM; in assay [2] (setting [7]), 0.1 to 1 µM; in assay [2] (setting [8]) it was 0.1 to 1 µM; in assay [3], 1 to 10 µM; in assay [4], < 0.1 µM; in assay [5], 0.1 to 1 µM. The AC50 in assay [1] and in assay [2] (setting [6]) was 0.1 to 1 µM throughout.
